# Data published in ChEMBL document CHEMBL1144681, “Fluorination of triptolide and its analogues and their cytotoxicity” (Bioorg Med Chem Lett, 2008).
# Legend:
# [1] = test system: A549; assay: Cytotoxicity against human A549 cells; assay type: functional, cell-based
# [2] = test system: HT-29; assay: Cytotoxicity against human HT29 cells; assay type: functional, cell-based
SMILES,IC50 [1] [ng/mL],IC50 [2] [ng/mL]
CC(C)C1=C[C@]23O[C@H]2C[C@H]2C4=C(CC[C@]2(C)[C@@]32O[C@H]2[C@H]1F)C(=O)OC4,2200,210
CC(C)[C@]12O[C@H]1[C@@H]1O[C@@]13[C@@]1(C)CCC4=C(COC4=O)[C@@H]1C[C@@H]1O[C@@]13C2=O [TRIPTONIDE],3.5,< 0.46
CC(C)C1=C[C@]23O[C@H]2C[C@H]2C4=C(CC[C@]2(C)[C@@]32O[C@H]2[C@@H]1O)C(=O)OC4,81,17
CC(C)[C@]12O[C@@H]1[C@@H]1O[C@]13[C@]1(O[C@H]1C[C@H]1C4=C(CC[C@@]13C)C(=O)OC4)[C@H]2F,3,0.24
CC(C)[C@]12O[C@H]1[C@@H]1O[C@]13[C@]1(O[C@H]1C[C@H]1C4=C(CC[C@@]13C)C(=O)OC4)[C@H]2O [EPITRIPTOIIDE],59,9.1
CC(C)C1=C[C@]23O[C@H]2C[C@H]2C4=C(CC[C@]2(C)[C@@]32O[C@H]2[C@@H]1F)C(=O)OC4,1500,150
CC(C)C(=O)[C@H]1[C@@H](O)[C@@H]2O[C@]23[C@]12O[C@H]2C[C@H]1C2=C(CC[C@@]13C)C(=O)OC2,> 1,86
CC(C)[C@]12O[C@@H]1[C@@H]1O[C@]13[C@]1(O[C@H]1C[C@H]1C4=C(CC[C@@]13C)C(=O)OC4)[C@@H]2F,0.42,0.06
CC(C)[C@]12O[C@H]1[C@@H]1O[C@]13[C@]1(O[C@H]1C[C@H]1C4=C(CC[C@@]13C)C(=O)OC4)[C@@H]2O [TRIPTOLIDE],1.3,0.1
CC(C)[C@]1(F)O[C@H]2[C@@H]3O[C@]34[C@]3(O[C@H]3C[C@H]3C5=C(CC[C@@]34C)C(=O)OC5)[C@H]21,997,72
